Test results as given in patent US10463664B2, “Inhibitors of HSV nucleotidyl transferases and uses therefor” (Saint Louis University, priority 2013, dated 2019).

Columns and labels:
HSV-2 = assay: Anti-HSV-2 replication assay in Vero cells, titer by plaque assay; assay type: cell-based, herpes simplex virus 2; conditions: for Anti-HSV-2 Log10 suppression 5 μM (screening symbol) / Anti-HSV-2 Log10 suppression 50 μM (screening symbol): visual inspection; for Inhibition of HSV-2 replication (in words): primary screening; for Anti-HSV-2 Log10 suppression 5 μM / Anti-HSV-2 Log10 suppression 50 μM: moi 0.1, 24 h, relative to DMSO
Description: (§1) Anti-HSV-1 and -HSV-2 Replication Assay. Compounds to be screened were diluted in PBS supplemented to contain 2% newborn calf serum and 1% glutamine, and added in 100 μL, volume to confluent cell monolayers in 24-well cluster plates. Immediately thereafter HSV-1 and HSV-2, diluted in the supplemented PBS medium, were added to the wells in 50 μl volume such that the final concentration of compound was 50 μM and 5 μM and the multiplicity of infection was 0.1. The plates were incubated at 37° C. for 1 hour and then virus-containing inoculum was removed and the wells were washed once in PBS. Compounds, diluted to 50 μM and 5 μM in DMEM supplemented to contain 2% newborn calf serum and 1% each penicillin/streptomycin, were added at 0.5 mL/well. Plates were incubated at 37° C. an additional 23 hr, and then the plates were visually inspected through a phase contrast microscope for cytopathic effect, and for toxic effect. […] The entire contents of each well were collected by scraping. Samples were frozen at −80° C., and then subsequently thawed, sonicated, and infectious virus titer was determined by standard plaque assay on Vero cell monolayers. Because the compounds were dissolved at 10 mM in 100% DMSO, equivalent dilutions of DMSO were added to additional wells as a control for effects of the diluent. Each experiment was repeated once. EC50 values were determined as above except that serial dilutions of the compound to be tested were prepared starting at 50 μM. The inhibitory values were calculated by non-linear curve-fitting in GraphPad Prism.
(§2) Monolayers were microscopically inspected 24 hours post-infection and wells in which more cells were visually healthier than the DMSO-treated controls were collected. Viral titers in the culture lysates were then determined by standard plaque assay on Vero cells. Inhibition of viral replication was categorized as <1 log10 relative to the DMSO-treated control, 1 to 3 log10 suppression, or ≥3 log10 suppression. […] Additionally, four polyoxygenated heterocycle compounds were tested (#128, 138, 139, 140).

human RNaseH1 = biological target: T1, human RNaseH1 (Homo sapiens, UniProt O60930); assay: Biochemical inhibition of human RNaseH1 (oligonucleotide-directed RNA cleavage assay); conditions: compounds at 60, 20 or 10 μM
T1 construct: hexahistidine; made in house; host or cells: E. coli
T1 sequence (O60930 1-286): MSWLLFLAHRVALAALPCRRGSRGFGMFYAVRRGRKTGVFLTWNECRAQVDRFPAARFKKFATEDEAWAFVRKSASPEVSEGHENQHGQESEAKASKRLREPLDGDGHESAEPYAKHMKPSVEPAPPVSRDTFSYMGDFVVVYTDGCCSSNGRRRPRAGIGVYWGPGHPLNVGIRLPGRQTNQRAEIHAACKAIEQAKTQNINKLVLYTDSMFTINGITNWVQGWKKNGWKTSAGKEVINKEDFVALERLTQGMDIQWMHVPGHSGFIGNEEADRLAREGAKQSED
Description: (§3) Biochemical inhibition of HBV RNaseH and human RNaseH1 activity. […] RNaseH activity was measured using an oligonucleotide-directed RNA cleavage assay in which a DNA oligonucleotide is annealed to an internally ^32P-labeled RNA, the RNA:DNA heteroduplex is incubated with the enzyme to permit cleavage, and then the RNA cleavage products are resolved by electrophoresis and detected by autoradiography. The compounds were included in the reaction mixes at 60, 20, or 10 μM and the amount of the RNA cleavage products in the compound-containing reactions was compared to reactions in which an equivalent concentration of DMSO was added as a vehicle control. The data were quantified using ImageJ.

HSV-1 = assay: Anti-HSV-1 replication assay in Vero cells, titer by plaque assay; assay type: cell-based, herpes simplex virus 1; conditions: for Anti-HSV-1 Log10 suppression 5 μM (screening symbol) / Anti-HSV-1 Log10 suppression 50 μM (screening symbol): visual inspection; for Inhibition of HSV-1 replication (in words): primary screening; for Anti-HSV-1 Log10 suppression 5 μM / Anti-HSV-1 Log10 suppression 50 μM: moi 0.1, 24 h, relative to DMSO
Description: as §1, §2

HBV RNaseH = biological target: T2, HBV RNaseH (Hepatitis B virus genotype A2 subtype adw2, UniProt P03159); assay: Biochemical inhibition of HBV RNaseH (oligonucleotide-directed RNA cleavage assay); conditions: compounds at 60, 20 or 10 μM
T2 construct: One of the inventors recently produced active recombinant HBV RNase H; hexahistidine; made in house; host or cells: E. coli
T2 sequence (P03159 693-845): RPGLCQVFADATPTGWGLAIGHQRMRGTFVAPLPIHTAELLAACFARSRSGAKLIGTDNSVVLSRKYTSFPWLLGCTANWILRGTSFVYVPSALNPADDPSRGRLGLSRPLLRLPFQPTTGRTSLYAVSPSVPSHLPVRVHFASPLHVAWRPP
Description: as §3

Row | SMILES | Anti-HSV-2 Log10 suppression 5 μM (screening symbol) (HSV-2) | Anti-HSV-2 Log10 suppression 50 μM (screening symbol) (HSV-2) | Anti-HSV-1 Log10 suppression 5 μM (screening symbol) (HSV-1) | Anti-HSV-1 Log10 suppression 50 μM (screening symbol) (HSV-1) | Anti-HBV RNaseH (HBV RNaseH) | Inhibition of HSV-2 replication (in words) (HSV-2) | Inhibition of HSV-1 replication (in words) (HSV-1) | further results
1 | CCOC(=O)c1cc2ccccc2n(O)c1=O [Compound 42] | − | − | − | − | − (no inhibition at 60 μM) |  |  | Anti-Human RNaseH1 (human RNaseH1): + (inhibition at 60 μM)
2 | O=C1c2cccc3cccc(c23)C(=O)N1O [Compound 45] | − | − | − | − | − (no inhibition at 60 μM) |  |  | Anti-Human RNaseH1 (human RNaseH1): − (no inhibition at 60 μM)
3 | O=C(O)c1cn(C2CC2)c2cc(Cl)c(F)cc2c1=O [Compound 66] | − | − | − | + | − (no inhibition at 60 μM) |  |  | 
4 | C[C@@H]1CCO[C@H]2Cn3cc(C(=O)NCc4ccc(F)cc4F)c(=O)c(O)c3C(=O)N12 [Compound 73, Dolutegravir, reference compound] |  |  |  |  |  | negligible inhibition | negligible inhibition | 
5 | CCn1cc(C(=O)O)c(=O)c2ccc(C)nc21 [Compound 70] | − | − | − | − | − (no inhibition at 60 μM) |  |  | 
6 | Cc1sc2nc(-c3ccc([N+](=O)[O-])cc3)[nH]c(=O)c2c1C [Compound 38] |  |  |  |  | +++ (inhibition at 10 μM) |  |  | Anti-HSV-2 Log10 suppression 5 μM (HSV-2): 0.11 log10; Anti-HSV-2 Log10 suppression 50 μM (HSV-2): −0.05 log10; Anti-HSV-1 Log10 suppression 5 μM (HSV-1): −0.07 log10; Anti-HSV-1 Log10 suppression 50 μM (HSV-1): 0.07 log10
7 | O=c1cc2oc3cc(O)c(O)cc3c(-c3ccccn3)c-2cc1O [Compound 39] |  |  |  |  | +++ (inhibition at 10 μM) |  |  | Anti-HSV-2 Log10 suppression 5 μM (HSV-2): 0.12 log10; Anti-HSV-2 Log10 suppression 50 μM (HSV-2): 0.17 log10; Anti-Human RNaseH1 (human RNaseH1): +++ (inhibition at 10 μM); Anti-HSV-1 Log10 suppression 5 μM (HSV-1): 0.19 log10; Anti-HSV-1 Log10 suppression 50 μM (HSV-1): 0.22 log10
8 | Cc1sc2nc(-c3ccccc3)nc(O)c2c1C [Compound 136] |  |  |  |  |  | negligible inhibition | negligible inhibition | 
9 | Nc1ccn(C[C@@H](CO)OCP(=O)(O)O)c(=O)n1 [CID, Cidofovir, reference compound] |  |  |  |  |  | negligible | negligible | Anti-HSV-2 Log10 suppression 5 μM (HSV-2): 0.38 log10; Anti-HSV-2 Log10 suppression 50 μM (HSV-2): 1.19 log10; Anti-Human RNaseH1 (human RNaseH1): − (no inhibition at 60 μM); Anti-HSV-1 Log10 suppression 5 μM (HSV-1): 0.77 log10; Anti-HSV-1 Log10 suppression 50 μM (HSV-1): 2.67 log10
10 | O=C1c2ccc3ccccc3c2C(=O)N1[O-].[Na+] [Compound 128] |  |  |  |  |  | None of these compounds was particularly efficacious | None of these compounds was particularly efficacious | 
11 | Cc1cc(C(F)(F)F)c(C#N)c(=O)[nH]1 [Compound 19] | − | − | − | − | − (no inhibition at 60 μM) |  |  | 
12 | O=C(O)C(=O)CC(=O)c1ccccc1 [Compound 131] |  |  |  |  |  | negligible inhibition | negligible inhibition | 
13 | [N-]=[N+]=NCc1cccc(C(=O)CC(=O)C(=O)O)c1 [Compound 40] |  |  |  |  |  | negligible inhibition | negligible inhibition | 
14 | N#Cc1cc2ccccc2oc1=N [Compound 21] | − | − | − | − | − (no inhibition at 60 μM) |  |  | 
15 | CCOC(=O)c1sc(NC(=O)CSc2nnc(-c3ccc(Cl)cc3)o2)c(C#N)c1C [Compound 24] | − | − | − | − | − (no inhibition at 60 μM) |  |  | 
16 | Cc1cc(C)c(C#N)c(=N)o1 [Compound 5] | − | − | − | − | + (inhibition at 60 μM) |  |  | 
17 | COC(=O)Oc1nsnc1N1CCOCC1 [Compound 4] | − | − | − | − | + (inhibition at 60 μM) |  |  | 
18 | O=C1C(=O)C(c2ccc(O)c(O)c2)Oc2cc(O)cc(O)c21 (stereo not drawn) [Compound 134] |  |  |  |  |  | negligible inhibition | negligible inhibition | 
19 | Cn1c(C(C)(C)NC(=O)c2ccccc2)nc(C(=O)NCc2ccc(F)cc2)c(O)c1=O [Compound 121] |  |  |  |  |  | negligible inhibition | negligible inhibition | 
20 | O=C1c2ccccc2C(=O)N1O [Compound 138] |  |  |  |  |  | None of these compounds was particularly efficacious | None of these compounds was particularly efficacious | 
21 | Cn1c(N2CCCCS2(=O)=O)nc(C(=O)NCc2ccc(F)cc2)c(O)c1=O [Compound 72] |  |  |  |  |  | negligible inhibition | negligible inhibition | 
22 | O=C(Oc1cccccc1=O)c1ccc(Cl)cc1 [Compound 63] |  |  |  |  |  | negligible inhibition | negligible inhibition | 
23 | NC(=O)c1c(N)sc2c1CCCCC2 [Compound 3] |  |  |  |  | − (no inhibition at 60 μM) |  |  | Anti-HSV-2 Log10 suppression 5 μM (HSV-2): 0.06 log10; Anti-HSV-2 Log10 suppression 50 μM (HSV-2): 0.39 log10; Anti-HSV-1 Log10 suppression 5 μM (HSV-1): 0.19 log10; Anti-HSV-1 Log10 suppression 50 μM (HSV-1): −0.03 log10
24 | NC(=O)c1c(N)sc2c1CCCCC2 [Compound 22] | − | − | − | − |  |  |  | 
25 | CCOC(=O)c1sc(NC(=O)CSc2nnc(Cc3ccccc3)o2)c(C#N)c1C [Compound 6] | − | − | − | − | + (inhibition at 60 μM) |  |  | 
26 | O=C1C(=O)C(c2cc(O)c(O)c(O)c2)Oc2cc(O)ccc21 (stereo not drawn) [Compound 135] |  |  |  |  |  | negligible inhibition | negligible inhibition | 
27 | O=C1CCC(=O)N1O [Compound 139] |  |  |  |  |  | None of these compounds was particularly efficacious | None of these compounds was particularly efficacious | 
28 | CC1=C(C#N)C(=O)NC(=O)C1=Cc1ccc(-c2ccccc2)o1 [Compound 140] |  |  |  |  |  | None of these compounds was particularly efficacious | None of these compounds was particularly efficacious | 
